Experimental data as given in paper PMC11249626, “Fluorophore-Labeled Pyrrolones Targeting the Intracellular Allosteric Binding Site of the Chemokine Receptor CCR1” (ACS Pharmacology & Translational Science, 2024).

Target: T1, CCR1 (Homo sapiens, UniProt P32246)
T1 sequence (P32246 1-355): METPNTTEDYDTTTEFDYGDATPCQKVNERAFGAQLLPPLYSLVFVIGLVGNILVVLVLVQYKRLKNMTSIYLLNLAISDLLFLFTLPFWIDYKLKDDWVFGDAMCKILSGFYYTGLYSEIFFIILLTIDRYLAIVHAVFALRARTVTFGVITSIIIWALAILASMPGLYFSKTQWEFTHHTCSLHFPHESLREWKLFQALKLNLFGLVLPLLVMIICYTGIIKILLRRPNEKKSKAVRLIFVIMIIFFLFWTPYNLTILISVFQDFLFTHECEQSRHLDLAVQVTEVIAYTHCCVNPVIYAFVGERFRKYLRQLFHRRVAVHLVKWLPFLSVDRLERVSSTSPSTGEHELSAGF
Experiment: Membrane-based NanoBRET saturation binding assay, CCR1_Nluc membranes from HEK293T cells
Set-up: Promega pNLF1-C (Nluc) #CCR010TN00; host or cells: HEK293T, transient (PEI)
Settings: saturation binding of fluorescent ligand, read-out: KD (equilibrium, KD(eq.))
Excerpt: To evaluate the CCR1 affinity of previously reported (8–9) and new fluorescently labeled pyrrolones (11–12), we developed a NanoBRET-based binding assay (Figures 4A–H and S2A–J). To this end, we used a previously reported CCR1 construct (hereafter referred to as CCR1_Nluc) with a small and bright luciferase variant (nanoluciferase,[52] Nluc), fused to the intracellular C-terminus of CCR1 (Figures 4A and S2A).[47] […] This was expected, given the very low CCR2/CCR1 selectivity of the parental ligands 4 and 5 (Figure 1).[33] For further studies, we selected 12 due to its highest CCR1 affinity.
Cell culture: HEK293T cells were cultured as previously described.8 In brief, HEK293T cells (gift from Chair of Physiology, Prof. Dr. Alzheimer, FAU Erlangen-Nürnberg) were grown on 10 cm culture dishes at 37 °C and 5% CO2. As growth medium, Dulbecco's Modified Eagle Medium (DMEM)/F12 (Invitrogen) supplemented with 10% fetal bovine serum (FBS, Gibco™ Fetal Bovine Serum, qualified, Brazil), L-glutamine (final concentration: 2 mM; from Gibco™ L-glutamine 200 mM, 100X), penicillin (final concentration: 100 units/mL), and streptomycin (final concentration: 100 µg/mL; from Gibco™ Penicillin-Streptomycin 10,000 U/mL) was used. Cells were split every three to four days and regularly confirmed to be free of mycoplasma contamination using the luminescence-based MycoAlert Plus Kit (Lonza).
Transient transfection using polyethylenimine: For transfection, we used a previously published procedure.8 In brief, HEK293T cells were plated onto culture dishes (Ø 10 cm or Ø 15 cm) and grown to a confluence of approximately 50% at 37 °C and 5% CO2. The growth medium was renewed one-hour before transfection. The transfection mix was prepared, as described in the following. Solution A (0.4-2.2% total DNA (1-5.5 µg) in Gibco™ phosphate buffered saline, pH 7.4) and solution B (3% PEI (linear, 25 kDa, from Polysciences) solution prepared from a PEI stock solution (0.4 µg/µL) in PBS without MgCl2 and CaCl2) were mixed one to one, the resulting mixture was vortexed for 5 s and incubated for 30 min at room temperature. The pre-incubated transfection mix was added dropwise to the cells and cell cultivation was continued […]
Membrane preparation: Membranes were prepared as previously reported.8 In brief, membranes from HEK293T cells transiently expressing the respective GPCR were prepared as follows. The medium of the transfected cells was refreshed after 24 h before cells were harvested 48 h post-transfection. […]
Finally, the protein concentration was determined using the Lowry method.9 cDNA constructs: The CCR1-Nluc fusion construct (CCR1_Nluc) in pcDNA3.1 was generated as previously reported1 using the Gibson Assembly10 (New England Biolabs) method. […]

| SMILES | Kd [µM] |
| --- | --- |
| CN(C)c1ccc2c(-c3cc(C(=O)NCCOCCOCc4cn(CCCC(=O)C5=C(O)C(=O)N(c6ccc(Cl)cc6F)C5C5CCCCC5)nn4)ccc3C(=O)[O-])c3ccc(=[N+](C)C)cc-3oc2c1 (centres unmarked) [compound 11] | 3.17 ± 0.37 |
| CN(C)c1ccc2c(-c3cc(C(=O)NCCOCCOCc4cn(CCCC(=O)C5=C(O)C(=O)N(c6ccc(Br)cc6F)C5C5CCCCC5)nn4)ccc3C(=O)[O-])c3ccc(=[N+](C)C)cc-3oc2c1 (centres unmarked) [compound 12] | 1.9 ± 0.18 |
